Assay results from the CheMixHub ionic liquid set.
± gives the uncertainty stated by the source.

Assay: xn = mol fraction of the nth substance listed

Work on `CN(C)C=O` + CC[n+]1ccn(C)c1.F[B-](F)(F)F yielded a viscosity (313.15 K, 101 kPa, x1 = 1) of 0.667 ± 0.009 mPa·s and a viscosity (333.15 K, 101 kPa, x1 = 1) of 0.541 ± 0.007 mPa·s.
Work on `CCCCn1cc[n+](CCOCCOCCOCCOCC[n+]2ccn(CCCC)c2)c1.O=S(=O)([N-]S(=O)(=O)C(F)(F)F)C(F)(F)F.O=S(=O)([N-]S(=O)(=O)C(F)(F)F)C(F)(F)F` + CC[n+]1ccn(C)c1.N#C[N-]C#N + O=S(=O)([N-]S(=O)(=O)C(F)(F)F)C(F)(F)F.[Li+] yielded an electrical conductivity (298 K, 100 kPa, x1 = 0.1333, x2 = 0.7621) of 0.835 ± 0.033 S/m, an electrical conductivity (303 K, 100 kPa, x1 = 0.1333, x2 = 0.7621) of 0.94 ± 0.038 S/m and an electrical conductivity (313 K, 100 kPa, x1 = 0.1333, x2 = 0.7621) of 1.17 ± 0.047 S/m. The electrical conductivity (323 K, 100 kPa, x1 = 0.1333, x2 = 0.7621) was 1.52 ± 0.061 S/m, the electrical conductivity (333 K, 100 kPa, x1 = 0.1333, x2 = 0.7621) was 1.8 ± 0.072 S/m and the electrical conductivity (343 K, 100 kPa, x1 = 0.1333, x2 = 0.7621) was 2.06 ± 0.082 S/m.
Work on `CCCCn1cc[n+](CCOCC[n+]2ccn(CCCC)c2)c1.O=S(=O)([N-]S(=O)(=O)C(F)(F)F)C(F)(F)F.O=S(=O)([N-]S(=O)(=O)C(F)(F)F)C(F)(F)F` + CC[n+]1ccn(C)c1.N#C[N-]C#N + O=S(=O)([N-]S(=O)(=O)C(F)(F)F)C(F)(F)F.[Li+] yielded an electrical conductivity (298 K, 100 kPa, x1 = 0.1503, x2 = 0.7472) of 0.512 ± 0.02 S/m, an electrical conductivity (303 K, 100 kPa, x1 = 0.1503, x2 = 0.7472) of 0.654 ± 0.026 S/m and an electrical conductivity (313 K, 100 kPa, x1 = 0.1503, x2 = 0.7472) of 0.829 ± 0.033 S/m. It also gave an electrical conductivity (323 K, 100 kPa, x1 = 0.1503, x2 = 0.7472) of 1.11 ± 0.044 S/m, an electrical conductivity (333 K, 100 kPa, x1 = 0.1503, x2 = 0.7472) of 1.45 ± 0.058 S/m and an electrical conductivity (343 K, 100 kPa, x1 = 0.1503, x2 = 0.7472) of 1.84 ± 0.074 S/m.
Molecule `C[N+]1(CCOCCOCCOCCOCC[N+]2(C)CCCC2)CCCC1.O=S(=O)([N-]S(=O)(=O)C(F)(F)F)C(F)(F)F.O=S(=O)([N-]S(=O)(=O)C(F)(F)F)C(F)(F)F` + CC[n+]1ccn(C)c1.N#C[N-]C#N + O=S(=O)([N-]S(=O)(=O)C(F)(F)F)C(F)(F)F.[Li+] has an electrical conductivity (298 K, 100 kPa, x1 = 0.1429, x2 = 0.7537) of 0.47 ± 0.019 S/m, an electrical conductivity (303 K, 100 kPa, x1 = 0.1429, x2 = 0.7537) of 0.56 ± 0.022 S/m and an electrical conductivity (313 K, 100 kPa, x1 = 0.1429, x2 = 0.7537) of 0.77 ± 0.031 S/m. For the same molecule, the electrical conductivity (323 K, 100 kPa, x1 = 0.1429, x2 = 0.7537) was 1.08 ± 0.043 S/m, the electrical conductivity (333 K, 100 kPa, x1 = 0.1429, x2 = 0.7537) was 1.34 ± 0.053 S/m and the electrical conductivity (343 K, 100 kPa, x1 = 0.1429, x2 = 0.7537) was 1.63 ± 0.065 S/m.
Work on `CCOC(C)=O` + CC[n+]1ccn(C)c1.O=S(=O)([N-]S(=O)(=O)C(F)(F)F)C(F)(F)F yielded a viscosity (303.15 K, 100 kPa, x1 = 1) of 0.39 mPa·s.
Molecule `CN(C)C=O` + CC[n+]1ccn(C)c1.O=S(=O)([O-])C(F)(F)F has a viscosity (298.15 K, 100 kPa, x1 = 1) of 0.81 mPa·s.
`CN(C)C=O` + CC[n+]1ccn(C)c1.[Cl-] gave a viscosity (288.15 K, 101 kPa, x1 = 1) of 0.94 ± 0.11 mPa·s.
Work on `CC#N` + CC[n+]1ccn(C)c1C.F[B-](F)(F)F yielded a viscosity (293.15 K, 101.3 kPa, x2 = 0) of 0.361 ± 0.034 mPa·s, a viscosity (298.15 K, 101.3 kPa, x2 = 0) of 0.346 ± 0.033 mPa·s and a viscosity (303.15 K, 101.3 kPa, x2 = 0) of 0.332 ± 0.031 mPa·s. The viscosity (308.15 K, 101.3 kPa, x2 = 0) was 0.32 ± 0.03 mPa·s, the viscosity (313.15 K, 101.3 kPa, x2 = 0) was 0.309 ± 0.029 mPa·s and the viscosity (318.15 K, 101.3 kPa, x2 = 0) was 0.298 ± 0.028 mPa·s. For the same molecule, the viscosity (323.15 K, 101.3 kPa, x2 = 0) was 0.288 ± 0.027 mPa·s, the viscosity (328.15 K, 101.3 kPa, x2 = 0) was 0.279 ± 0.026 mPa·s and the viscosity (333.15 K, 101.3 kPa, x2 = 0) was 0.271 ± 0.026 mPa·s.
Work on `CCCC[P+](C)(CCCC)CCCC.COS(=O)(=O)[O-]` + CN1CCCC1=O yielded a viscosity (293.15 K, 101 kPa, x1 = 0.8086) of 530 ± 220 mPa·s, a viscosity (298.15 K, 101 kPa, x1 = 0.056) of 7.6 ± 3 mPa·s and a viscosity (298.15 K, 101 kPa, x1 = 0.3764) of 80 ± 32 mPa·s. The viscosity (298.15 K, 101 kPa, x1 = 0.7129) was 290 ± 120 mPa·s, the viscosity (298.15 K, 101 kPa, x1 = 0.8086) was 370 ± 150 mPa·s and the viscosity (298.15 K, 101 kPa, x1 = 1) was 520 ± 210 mPa·s. For the same molecule, the viscosity (303.15 K, 101 kPa, x1 = 0.0914) was 4.9 ± 2 mPa·s, the viscosity (303.15 K, 101 kPa, x1 = 0.1773) was 10.8 ± 4.3 mPa·s and the viscosity (303.15 K, 101 kPa, x1 = 0.2318) was 15.5 ± 6.2 mPa·s. For the same molecule, the viscosity (303.15 K, 101 kPa, x1 = 0.2971) was 25 ± 10 mPa·s, the viscosity (303.15 K, 101 kPa, x1 = 0.8086) was 260 ± 110 mPa·s and the viscosity (303.15 K, 101 kPa, x1 = 0.9022) was 330 ± 130 mPa·s. For the same molecule, the viscosity (303.15 K, 101 kPa, x1 = 0.9468) was 350 ± 140 mPa·s, the viscosity (313.15 K, 101 kPa, x1 = 0.056) was 1 ± 0.4 mPa·s and the viscosity (313.15 K, 101 kPa, x1 = 0.1773) was 4.5 ± 1.8 mPa·s. It also gave a viscosity (318.15 K, 101 kPa, x1 = 0.2318) of 7.1 ± 2.9 mPa·s, a viscosity (318.15 K, 101 kPa, x1 = 0.7129) of 73 ± 29 mPa·s and a viscosity (318.15 K, 101 kPa, x1 = 0.8086) of 112 ± 45 mPa·s. For the same molecule, the viscosity (323.15 K, 101 kPa, x1 = 0.0914) was 2.5 ± 1 mPa·s and the viscosity (323.15 K, 101 kPa, x1 = 0.6014) was 30 ± 12 mPa·s.
Work on `CCCC[P+](C)(CCCC)CCCC.COS(=O)(=O)[O-]` + CN(C)C=O yielded a viscosity (293.15 K, 100 kPa, x1 = 0.3321) of 27.12 ± 0.71 mPa·s, a viscosity (293.15 K, 100 kPa, x1 = 0.4272) of 67.1 ± 1.8 mPa·s and a viscosity (293.15 K, 100 kPa, x1 = 0.9362) of 625 ± 55 mPa·s. It also gave a viscosity (298.15 K, 100 kPa, x1 = 1) of 521 ± 43 mPa·s, a viscosity (303.15 K, 100 kPa, x1 = 0.0765) of 2.239 ± 0.064 mPa·s and a viscosity (303.15 K, 100 kPa, x1 = 0.8837) of 287 ± 18 mPa·s. For the same molecule, the viscosity (308.15 K, 100 kPa, x1 = 0.6717) was 99.2 ± 3.4 mPa·s, the viscosity (313.15 K, 100 kPa, x1 = 0.0474) was 1.983 ± 0.051 mPa·s and the viscosity (313.15 K, 100 kPa, x1 = 1) was 217 ± 12 mPa·s. The viscosity (318.15 K, 100 kPa, x1 = 0.2582) was 8.21 ± 0.19 mPa·s, the viscosity (318.15 K, 100 kPa, x1 = 0.3321) was 12.45 ± 0.3 mPa·s and the viscosity (323.15 K, 100 kPa, x1 = 0.1508) was 3.946 ± 0.088 mPa·s. The viscosity (323.15 K, 100 kPa, x1 = 0.8837) was 112.5 ± 4.4 mPa·s.
For `CCCC[n+]1ccn(C)c1.F[P-](F)(F)(F)(F)F` + CN(C)C=O, the viscosity (293.15 K, 101 kPa, x2 = 0.3999) was 39.7 ± 1.1 mPa·s, the viscosity (303.15 K, 101 kPa, x2 = 0) was 187.6 ± 4.5 mPa·s and the viscosity (303.15 K, 101 kPa, x2 = 0.7963) was 2.42 ± 0.03 mPa·s. For the same molecule, the viscosity (303.15 K, 101 kPa, x2 = 0.9399) was 1.21 ± 0.02 mPa·s, the viscosity (308.15 K, 101 kPa, x2 = 0.3002) was 30.91 ± 0.86 mPa·s and the viscosity (308.15 K, 101 kPa, x2 = 0.6) was 7.89 ± 0.22 mPa·s. The viscosity (308.15 K, 101 kPa, x2 = 0.7) was 4.71 ± 0.13 mPa·s, the viscosity (313.15 K, 101 kPa, x2 = 0.8543) was 1.7 ± 0.02 mPa·s and the viscosity (318.15 K, 101 kPa, x2 = 0) was 95.8 ± 2.8 mPa·s. For the same molecule, the viscosity (318.15 K, 101 kPa, x2 = 0.2) was 31.22 ± 0.86 mPa·s, the viscosity (318.15 K, 101 kPa, x2 = 0.6) was 6.16 ± 0.17 mPa·s and the viscosity (323.15 K, 101 kPa, x2 = 0.4909) was 8.38 ± 0.19 mPa·s. The viscosity (323.15 K, 101 kPa, x2 = 0.6262) was 4.46 ± 0.07 mPa·s.
